The source of these data is publication PMC3905461 (Chembiochem : a European journal of chemical biology, 2013).

Assay [1] has as its target T1, RpaR (Rhodopseudomonas palustris, UniProt Q6NCZ5). Description: Competitive RpaR antagonism reporter gene assay against p-cAHL. It counts as cell-based. The note with it: for Percent inhibition: 1 μM synthetic ligand against p-cAHL at its EC50 value (1 nM), negative values indicate agonistic responses, error < ±10%.
The target in assay [2] is T1, RpaR. Description: RpaR agonism reporter gene assay. It counts as cell-based. The note with it: for EC50: EC50 value, dose response in R. palustris CGA814 reporter; for activation at 1 µM: read-out: Percent activation; for Drop in agonistic activity relative to 1: compared with 2-fluoro cinnamoyl HL 1; for Percent activation: 1 μM synthetic ligand, relative to p-cAHL at 1 μM, triplicate of triplicate, error < ±10%.

A further assay has as its system LuxR. The note with it: V. fischeri LuxR; ref 7j, 7l; cited from earlier work.
Assay [3] has as its target T1, RpaR. The note with it: extracts from wild-type R. palustris grown with the aromatic acid; cited from earlier work.
The subject of assay [4] is other LuxR-type receptors. The note with it: ref 7j; cited from earlier work.

“And” between values parts separate entries of the source, which are not always exact repeats. Identical values can stand only once.

T1 sequence (Q6NCZ5 whole entry): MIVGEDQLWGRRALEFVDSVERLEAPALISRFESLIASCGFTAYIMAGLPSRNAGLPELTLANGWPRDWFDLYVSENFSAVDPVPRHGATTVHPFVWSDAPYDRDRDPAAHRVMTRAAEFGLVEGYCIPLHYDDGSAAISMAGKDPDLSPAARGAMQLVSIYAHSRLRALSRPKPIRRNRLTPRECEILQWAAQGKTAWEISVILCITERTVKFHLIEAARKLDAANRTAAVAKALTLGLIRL

Consider `O=C(CCc1ccc2c(c1)OCO2)N[C@H]1CCOC1=O` [Compound E39, 1,3-benzodioxole PPHL], for which, at RpaR [1], the IC50 turned out to be 228 nM and the Percent inhibition was determined as 63%.

Take `O=C(/C=C/c1ccc(O)cc1)N[C@H]1CCOC1=O` [p-cAHL, p-coumaroyl HL, reference compound]: the EC50 at RpaR [2] was 1 nM and ~1 nM.

On to `O=C(/C=C/c1cccc(O)c1)N[C@H]1CCOC1=O` [Compound 16, meta-cAHL], for which, at RpaR [2], the EC50 stood at 144 nM and the activation at 1 µM is 94%.

As to `O=C(/C=C/c1c(F)cccc1F)N[C@H]1CCOC1=O` [Compound 4, 2,6-difluoro cinnamoyl HL], at RpaR [2], the 50% effective concentration (EC50) is 4.8 nM and the activation at 1 µM was determined as 101%.

As for `O=C(COc1cccc([N+](=O)[O-])c1)N[C@H]1CCOC1=O` [Compound E25, 3-NO2 POHL], in the assay with LuxR, the “LuxR antagonism” value is on record as “strong antagonists”. On RpaR [1], this molecule showed an IC50 of 238 nM and a Percent inhibition of 63%.

Consider `O=C(/C=C/c1ccccc1F)N[C@H]1CCOC1=O` [Compound 1, 2-fluoro cinnamoyl HL], for which, on RpaR [2], the EC50 was found to be 3.4 nM and the activation at 1 µM was 99%.

For `COc1cc(C=CC(=O)NC2CCOC2=O)ccc1O` (stereo not shown) [Compound 18], the “RpaR agonist activity” value at RpaR [3] is “inactive”.

With `O=C(/C=C/c1cccc(F)c1)N[C@H]1CCOC1=O` [Compound 2], on RpaR [2], the EC50 was found to be 65.6 nM, the “Drop in agonistic activity relative to 1” value amounted to 20 fold and the activation at 1 µM stood at 84%.

Turning to `O=C(/C=C/c1ccc(F)cc1)N[C@H]1CCOC1=O` [Compound 3, 4-fluoro cinnamoyl HL], the “Agonistic activity at 1 μM” value at RpaR [2] (1 μM) is “inactive”. The same molecule returned a Percent activation on RpaR [2] of 1%.

Turning to `O=C(CCc1ccc([N+](=O)[O-])cc1)N[C@H]1CCOC1=O` [Compound E37, 4-NO2 PPHL], in the assay with LuxR, the “LuxR antagonism” value is recorded as “strong antagonists”. At RpaR [1], this molecule gave an IC50 of 235 nM and a Percent inhibition of 89%.

For the molecule `O=C(CCc1ccc(O)cc1)N[C@H]1CCOC1=O` [Compound 19], at RpaR [2], the EC50 turned out to be 532 nM and the activation at 1 µM came to 72%. For the same molecule, the “EC50 value higher than p-cAHL” value on RpaR [2] (relative to p-cAHL) amounted to 500 fold.

With `O=C(COc1ccccc1)N[C@H]1CCOC1=O` [Compound E14, POHL], the “Activity as agonist or antagonist in other LuxR-type receptors” value in assay [4] is “largely inactive”.

`O=C(/C=C/c1ccc(O)c(O)c1)N[C@H]1CCOC1=O` [Compound 17, caffeoyl HL] gave a Percent activation at RpaR [2] of 14%.

For `O=C(/C=C/c1ccccc1Br)N[C@H]1CCOC1=O` [Compound 10, 2-bromo cinnamoyl HL], on RpaR [2], the EC50 was 77.1 nM, the “Drop in agonistic activity relative to 1” value is reported as ~ 20 fold and the activation at 1 µM is 118%.

With `O=C(CCc1ccc(F)cc1)N[C@H]1CCOC1=O` [Compound E29, 4-F PPHL], in the assay with LuxR, the “LuxR antagonism” value is recorded as “strong antagonists”. On RpaR [1], this molecule had an IC50 of 300 nM and a Percent inhibition of 70%.

Consider `O=C(/C=C/c1ccccc1O)N[C@H]1CCOC1=O` [Compound 15, ortho-cAHL], for which, at RpaR [2], the EC50 is 1170 nM and the activation at 1 µM was found to be 59%.

Take `O=C(CCC1CCCCC1)N[C@H]1CCOC1=O` [Compound B11, cyclohexyl HL]: the “LuxR antagonism” value in the assay on LuxR was “strong antagonists”.

For `O=C(/C=C/c1ccccc1)N[C@H]1CCOC1=O` [Compound B10, cinnamoyl HL], at RpaR [2], a half-maximal response (EC50) required 32.3 nM and the activation at 1 µM was 65%.
